Converted amounts (≈) assume the structure as drawn.
Key:
[1] = ABTS˙+ radical scavenging assay
Procedure: (§1) The stock solutions (1 mg/mL) of the tested compounds and the controls were obtained, by dissolving the substances in dimethyl sulfoxide (DMSO). Using Jasco V-530, an UV-VIS spectrophotometer (Jasco International Co., Ltd., Tokyo, Japan), we performed the colorimetric determinations in low-volume single-use 10 mm width cuvettes.
(§2) The assays were performed in triplicate and the results are presented as averages for each assay.

[2] = DPPH˙ radical scavenging assay
Procedure: as §1, §2
The DPPH˙ radical scavenging assay is based on the transfer of one hydrogen from the analyzed compound to the violet stable free radical DPPH˙ (2,2-diphenyl-1-picrylhydrazyl), as we convert it into a yellow compound. The absorbance of the reagent mixed with samples presented inversely proportional values to the amount of DPPH˙ neutralized. The absorbance of the reagent was measured at λ = 517 nm, according to our previous reports. The assay was made in the presence of various concentrations of samples. The used protocol is based on the report of Brand-Williams et al..

[3] = test system: LNCaP (prostate carcinoma) cells; experiment: Cytotoxicity, Alamar blue assay, LNCaP cells; assay type: cell-based; conditions: Homo sapiens, 24 h exposure
From the text: (§3) Normal human foreskin (BJ) fibroblasts and two types of cancer cells, namely A549 (lung adenocarcinoma) and LNCaP (prostate carcinoma) purchased from American Type Culture Collection (Manassas, VA, USA), were used in the experiments. Each cell line was maintained in a different culture medium, depending on the metabolic necessities of the cells. BJ cells were maintained in Dulbecco’s modified Eagle’s medium (DMEM) with low glucose. A549 cells were maintained in DMEM with high glucose […], while LNCaP cells were grown in Roswell Park Memorial Institute (RPMI) 1640 medium with high glucose (5 g/L). All media used were supplemented with 10% fetal bovine serum (FBS) and were refreshed every two days. Cells were used in experiments or subcultured when they reached 70–80% confluence.
(§4) In 100 µL in 96-well plates, a number of 30,000 LNCaP cells, 15,000 A549 cells, and 7500 normal (BJ) cells were seeded. Because the cells have different sizes and volumes, the purpose of the different seedings was to achieve a confluency of 70–80% after 24 h. All types of cells were further exposed to the synthesized compounds (5a–d and 6a–d) for 24 h, at a concentration ranging from 12.5 to 100 µg/mL. Post-exposure, the media were removed, and the cells were washed with phosphate buffer saline (PBS). Their viability was evaluated using Alamar blue (AB) assay as previously described. Briefly, the cells were incubated with a 200 µM resazurin solution for 4 h. Using a Synergy 2 multi-mode microplate reader, we measured the fluorescence. The measurement was performed at λexcitation = 530/25 nm; λemission = 590/35 nm. We conducted the experiments using three biological replicates, each one including 6 technical replicates. As negative controls (NC), cells exposed to culture medium containing 0.2% DMSO were used. Compared to the NC (100%), the results were expressed as relative values. We used IC50 values for the potency evaluation, and calculated them for each cell line, using the dose-effect curves obtained by fitting the experimental data with a 4-parameter logistic curve.
(§5) Mean values ± standard deviation (SD) values of at least three biological replicates were used to calculate experimental data. One-way analysis of variance (ANOVA) with a post hoc Holm–Sidak test was used to statistically examine the data. Using SigmaPlot 11.0 software (Systat, Software Inc., Chicago, IL, USA), we performed the graphical display and data analysis. From a statistical point of view, the results were considered different, at values of p < 0.05.

[4] = test system: normal human foreskin fibroblasts (BJ); experiment: Cytotoxicity, Alamar blue assay, BJ cells; assay type: cell-based; conditions: Homo sapiens, Fibroblast; 24 h exposure, Alamar blue
From the text: as §3, §4, §5

[5] = test system: A549 (lung adenocarcinoma) cells; experiment: Cytotoxicity, Alamar blue assay, A549 cells; assay type: cell-based; conditions: Homo sapiens, 24 h exposure
From the text: as §3, §4, §5

[6] = Fe^2+ chelation assay (ferrozine competition)
Procedure: In the protocol used for evaluating the Fe^2+ chelating ability of the compounds, the absorbances of the solutions were determined at λ = 562 nm, against a blank sample. The method was adapted from the initial report of Benzie and Strain et al., which was previously reported by our group. Using Equation (5), we calculated the iron chelation capacities of the 5a–d and 6a–d compounds:(5) iron chelation (%)=control absorbance−sample absorbance/control absorbance×100
The chelating capacity of the tested compounds of Fe^2+ was evaluated based on their competition for Fe^2+ with ferrozine.

[7] = Cu^2+ chelation assay (murexide competition)
From the text: With murexide as a chromophoric chelator, we performed the protocol followed for the evaluation of Cu^2+ chelating activities of the compounds using an adaptation of the method presented by Cesari et al. and Wu et al.. Using Equation (6), we calculated the copper chelation capacities of the 5a–d and 6a–d compounds:(6) copper chelation (%)=(A485/A520)control−(A485/A520)sample/(A485/A520)control×100
The evaluation of the Cu^2+ chelation activity of compounds was made based on the competition for Cu^2+ with murexide. The chelating activity of compounds for the cupric ions found in the current assay is significant for the pyrogallol derivatives, being quite close to EDTA-Na2.

[8] = NO˙ radical scavenging assay (Griess reaction); conditions: PBS pH 7.4, sodium nitroprusside
Procedure: The scavenging of the NO˙ radical was performed by applying previously reported protocols. The in vitro protocol describes the decomposition of sodium nitroprusside in phosphate buffered saline (PBS) at pH = 7.4. The NO˙ radicals would be involved in a Griess reaction if they were not captured by the tested compounds. This reaction results from the formation of an azo dye, with maximum absorption at 546 nm. This azo dye is formed from sulfanilic acid and naphthyl ethylenediamine dichloride.

Row | Compound | IC50 [1] [µM] | % of ABTS˙^+ Scavenging ([1]; 0.83 µg/mL) [%] | % of ABTS˙^+ Scavenging ([1]; 1.67 µg/mL) [%] | % of ABTS˙^+ Scavenging ([1]; 3.33 µg/mL) [%] | % of ABTS˙^+ Scavenging ([1]; 4.99 µg/mL) | % of ABTS˙^+ Scavenging ([1]; 6.66 µg/mL) | % of ABTS˙^+ Scavenging ([1]; 9.99 µg/mL) | % of ABTS˙^+ Scavenging ([1]; 13.32 µg/mL) | IC50 [2] [µM] | IC50 (DPPH˙ scavenging) [2] [µg/mL] | % of DPPH˙ Scavenging ([2]; 1.25 µg/mL) [%] | % of DPPH˙ Scavenging ([2]; 2.5 µg/mL) [%] | % of DPPH˙ Scavenging ([2]; 3.75 µg/mL) [%] | % of DPPH˙ Scavenging ([2]; 5 µg/mL) [%] | % of DPPH˙ Scavenging ([2]; 7.5 µg/mL) [%] | % of DPPH˙ Scavenging ([2]; 10 µg/mL) [%] | % of DPPH˙ Scavenging ([2]; 12.5 µg/mL) | % of DPPH˙ Scavenging ([2]; 15 µg/mL) | further results
1 | O=C1O[C@H]([C@@H](O)CO)C(O)=C1O [Ascorbic acid, reference compound] | 11.4 | 60.97 | 73.24 | 87.73 | + (+ represents more than 95%) | + (+ represents more than 95%) | + (+ represents more than 95%) | + (+ represents more than 95%) | 16.1 | 2.83 (≈ 16.1 µM) | 35.11 | 47.45 | 55.71 | 64.21 | 79.16 | 94.39 | + (+ represents more than 95%) | + (+ represents more than 95%) | –
2 | COc1cccc2c1C(=O)c1c(O)c3c(c(O)c1C2=O)C[C@@](O)(C(=O)CO)C[C@@H]3O[C@H]1C[C@H](N)[C@H](O)[C@H](C)O1 [Doxorubicin, reference compound] | – | – | – | – | – | – | – | – | – | – | – | – | – | – | – | – | – | – | IC50 [3]: 0.74 µg/mL; IC50 [4]: > 7.5 µg/mL; IC50 [5]: 0.54 µg/mL
3 | O=C([O-])CN(CCN(CC(=O)[O-])CC(=O)O)CC(=O)O.[Na+].[Na+] [EDTA-Na2, reference compound] | – | – | – | – | – | – | – | – | – | – | – | – | – | – | – | – | – | – | Ferrous ions Chelation Capacity (%) ([6]; 17.70 µg/mL): 1.32%; Ferrous ions Chelation Capacity (%) ([6]; 20.59 µg/mL): 20.59%; Ferrous ions Chelation Capacity (%) ([6]; 29.41 µg/mL): 42.89%; Ferrous ions Chelation Capacity (%) ([6]; 44.11 µg/mL): 95.10%; Ferrous ions Chelation Capacity (%) ([6]; 58.82 µg/mL): + (+ represents more than 95%); Ferrous ions Chelation Capacity (%) ([6]; 88.23 µg/mL): + (+ represents more than 95%); Ferrous ions Chelation Capacity (%) ([6]; 117.64 µg/mL): + (+ represents more than 95%); Ferrous ions Chelation Capacity (%) ([6]; 257.46 µg/mL): + (+ represents more than 95%); Ferrous ions Chelation Capacity (%) ([6]; 343.28 µg/mL): + (+ represents more than 95%); Cupric ions Chelation Capacity (%) ([7]; 3.36 µg/mL): 10.39%; Cupric ions Chelation Capacity (%) ([7]; 8.40 µg/mL): 22.68%; Cupric ions Chelation Capacity (%) ([7]; 16.80 µg/mL): 44.51%
4 | O=C(O)c1cc(O)ccc1O [Gentisic acid, reference compound] | – | – | – | – | – | – | – | – | – | – | – | – | – | – | – | – | – | – | % of NO˙ Scavenged [8]: 48.14%
5 | Cc1c(C)c2c(c(C)c1O)CCC(C)(C(=O)O)O2 (stereo not shown) [Trolox, reference compound] | 18.6 | 38.66 | 53.16 | 66.54 | 94.57% | + (+ represents more than 95%) | + (+ represents more than 95%) | + (+ represents more than 95%) | 18.7 | 4.68 (≈ 18.7 µM) | 17.01 | 28.53 | 40.42 | 53.87 | 75.85 | 94.85 | + (+ represents more than 95%) | + (+ represents more than 95%) | –

Reference: PMC9867241, “Antioxidant and Cytotoxic Activity of New Polyphenolic Derivatives of Quinazolin-4(3H)-one: Synthesis and In Vitro Activities Evaluation” (Pharmaceutics, 2022)
